{"source": "paper PMC10756276", "about": "“Highly specific σ2R/TMEM97 ligand FEM-1689 alleviates neuropathic pain and inhibits the integrated stress response” (Proceedings of the National Academy of Sciences of the …, 2023)", "key": {"D4": {"molecular_target": "D4 (Homo sapiens, UniProt P21917)", "assay": "PDSP competitive binding assay", "settings": "10 µM test article; read-out: Ki: primary assay inhibition of radioligand binding, D4"}, "[1]": {"test_system": "MGO-induced mechanical hypersensitivity, wild-type mice", "assay": "Methylglyoxal-induced mechanical hypersensitivity", "type": "in vivo, mouse", "settings": "MGO 20 ng intraplantar; FEM-1689 20 mg/kg IV or ISRIB 2.5 mg/kg IP 24 h after MGO"}, "M3": {"molecular_target": "T1, M3 (Homo sapiens, UniProt P20309)", "T1 construct": "purchased NIMH Psychoactive Drug Screening Program (PDSP), University of North Carolina at Chapel Hill", "assay": "PDSP competitive binding assay", "settings": "10 µM test article; read-out: Ki: primary assay inhibition of radioligand binding, M3"}, "PBR": {"molecular_target": "T2, PBR (Rattus norvegicus, UniProt P16257)", "T2 construct": "purchased NIMH Psychoactive Drug Screening Program (PDSP), University of North Carolina at Chapel Hill", "assay": "PDSP competitive binding assay", "settings": "10 µM test article; read-out: Ki: primary assay inhibition of radioligand binding, PBR"}, "[2]": {"test_system": "p-eIF2α in human DRG neurons", "assay": "p-eIF2α immunocytochemistry in cultured human DRG neurons", "type": "cell-based"}, "KOR": {"molecular_target": "KOR (Homo sapiens, UniProt P41145)", "assay": "PDSP competitive binding assay"}, "D3": {"molecular_target": "D3 (Homo sapiens, UniProt P35462)", "assay": "PDSP competitive binding assay", "settings": "10 µM test article; read-out: Ki: primary assay inhibition of radioligand binding, D3"}, "5HT2B": {"molecular_target": "5HT2B (Homo sapiens, UniProt P41595)", "assay": "PDSP competitive binding assay", "settings": "10 µM test article; read-out: Ki: primary assay inhibition of radioligand binding, 5HT2B"}, "5HT1A": {"molecular_target": "T3, 5HT1A (Homo sapiens, UniProt P08908)", "T3 construct": "purchased NIMH Psychoactive Drug Screening Program (PDSP), University of North Carolina at Chapel Hill", "assay": "PDSP competitive binding assay", "settings": "10 µM test article; read-out: Ki: primary assay inhibition of radioligand binding, 5HT1A"}, "[3]": {"test_system": "p-eIF2α, eIF2A, p-PERK, BiP in HEK293T cells", "assay": "Western blot of ISR-related proteins in HEK293T cells", "type": "cell-based, human", "settings": "HEK293T, 0.1, 1, 10, 100 nM, 16 h (overnight)", "procedure": "Huma n e mbryon ic kidn ey (HEK) 293T ce lls (ATCC # C RL- 321 6) were ge nerously dona ted by th e Ca mpb ell Lab (UT Dallas). Cell stock s were previously fr ozen at 1 million cells/ml in 90% fetal bov ine s erum (F BS, ThermoFisher #SH300880340) and 10% DMSO. Cells were grown in complete medium (10% FBS, 1% Pen- Strep in DMEM/F12 + GlutaMax (Gibco #10565- 018) in T-75 flasks (Greiner Bio- One #658175). Cells were maintained at 37 °C with 5% CO2 and passaged twice before being plated onto either 96-well or 6-well plates for ICC/spectrophotometry and western blotting, respectively. Cells were counted using the TC20 automated cell counter (Bio- R ad #1450102) using a 1:1 dilution of trypan blue (Gibco #15250061).\nConcentr ations were transformed to […] values and data w as fit to a non- linear regression curve (inhibitor vs response, varia ble slop e , four p aram eters) constrain ed at top at 1 00, bott om at p -eIF2α levels at 300nM, […]\nHEK cells were plated at 60,000 cells per well onto six-well plates (ThermoFisher # 351146) for 24 hours before being treated w ith F EM- 1689 overnight. Protein extractions and western blotting w as perfor med as previous ly published (10) . In brief, media fr om the cells was removed and cells were washed once with 1X\nPBS. Cells were lysed in the well with radioimmunoprecipitation assay (RIPA) buffer consisting of 25 mM Tris, 150 mM NaCl, 0.1% SDS, 0.5% Na deoxycholate, 1% Triton X-100 with pr otease and phosphatas e inhibitor cocktails (Sigma Aldrich P8340, P5726, P0044 – 1:100 each). Cells were centr ifuged at 4 °C at 14,000 rpm for 10 min. The supernatant was used for downstream analysis. Protein was quantif ied using the Pierce BC A Protein Assay kit (Thermo Scientific, #23225) according to the manufacturer’s instructions.\nProte in samp les were de na tured usin g 4X L aem mli Sa mple buff er (BioR ad #1 610 747) and h eat ed at 95 °C for 5 min. 20 µg of protein samples were loaded onto 4- 20% Stain- Free Criterion TGX gels (BioRad #5678094). Gels were run in Tris/Glycine/SDS running buffer ( BioRad #1610772) at 120V for roughly 1.5 hours. St ain- Free gels wer e activated for 5 min pr ior to t he transf er step. Protein was transferred for 10 min onto low fluorescence poly vinylidene difluor ide (PVDF ) using a TransBlot Transfer kit (BioRad #1704275) and a Transblot Turbo transfer system (BioRad). Onc e transferred, total protein was imaged immediately using a ChemiDoc MP system (BioRad). Blots were allowed to dry for 5 min and were blocked with 5% non- fat milk in Tr is buffered saline (T BS)-Tween 20 (0.05%). Antibodies were diluted in 1% non- fat m ilk in TBS- Twe en 20. Primary ant ibo dies used in this st udy w ere: p- eIF 2α (1:1000, C ell Signaling #3398), t-eIF2α […]"}, "Beta 3": {"molecular_target": "T4, Beta 3 (Homo sapiens, UniProt P13945)", "T4 construct": "purchased NIMH Psychoactive Drug Screening Program (PDSP), University of North Carolina at Chapel Hill", "assay": "PDSP competitive binding assay", "settings": "10 µM test article; read-out: Ki: primary assay inhibition of radioligand binding, Beta 3"}}, "note": "Entries after “also recorded” stand apart in the source; their conditions may differ. Where two headings read alike, the source gives them in different places.", "data": [{"compound": "OCCCN1CC[C@@H]2C[C@H]1c1cc(-c3ccc(C(F)(F)F)cc3)ccc12", "note": "[FEM-1689]", "values": [{"measurement": "inhibition at 10 µM", "setting": "D4", "result": "< 50", "unit": "%"}, {"measurement": "MGO-induced mechanical hypersensitivity", "setting": "[1]", "result": "completely reversed MGO-induced mechanical hypersensitivity; also recorded: alleviated mechanical hypersensitivity for the duration of the pain state"}, {"measurement": "inhibition at 10 µM", "setting": "M3", "result": "< 50", "unit": "%"}, {"measurement": "inhibition at 10 µM", "setting": "PBR", "result": "< 50", "unit": "%"}, {"measurement": "p-eIF2α levels", "setting": "[2]; 10 and 100 nM, 16 h", "result": "significantly reduced p-eIF2α levels"}, {"measurement": "MGO-induced increase in p-eIF2α", "setting": "[2]; cotreatment MGO 1 µM and FEM-1689 100 nM", "result": "prevented this increase; also recorded: prevented an increase in p-eIF2α"}, {"measurement": "Ki", "setting": "KOR; Run 1, read-out: Ki, KOR", "result": 4.7, "unit": "µM"}, {"measurement": "Ki", "setting": "KOR; Run 2, read-out: Ki, KOR", "result": 9.49, "unit": "µM"}, {"measurement": "Ki", "setting": "KOR; read-out: KOR Ki", "result": "7.09 ± 2.4", "unit": "µM"}, {"measurement": "inhibition at 10 µM", "setting": "D3", "result": "< 50", "unit": "%"}, {"measurement": "inhibition at 10 µM", "setting": "5HT2B", "result": "< 50", "unit": "%"}, {"measurement": "inhibition at 10 µM", "setting": "5HT1A", "result": "< 50", "unit": "%"}, {"measurement": "BiP level (western blot)", "setting": "[3]", "result": "remained stable; also recorded: remained unchanged"}, {"measurement": "eIF2A level (western blot)", "setting": "[3]", "result": "concentration-dependent reduction; also recorded: significant reduction"}, {"measurement": "p-PERK level (western blot)", "setting": "[3]", "result": "concentration-dependent reduction; also recorded: significant reduction"}, {"measurement": "p-eIF2α level (western blot)", "setting": "[3]", "result": "concentration-dependent reduction; also recorded: significant reduction"}, {"measurement": "inhibition at 10 µM", "setting": "Beta 3", "result": "< 50", "unit": "%"}]}]}
